Source: patent US6852696B2, “Inhibitors of glycosaminoglycans” (The University of Texas System, priority 1999, dated 2005)

Test system: DC-associated HA
Assay: Binding of biotinylated peptide to DC surfaces
Conditions: biotinylated form
Protocol: FIGS. 8B-D. Synthesis and surface expression of HA by DC. (B) XS106 DC were labeled with ^3H-glucosamine and then examined for the incorporation of hyaluronidase-sensitive radioactivities (means+/−s.e.m.; n=5) into the indicated subcellular fractions. (C) XS106 DC were incubated with biotinylated Pep-1 or RP and then with PE-conjugated streptavidin (filed histograms) (Mummert et al. J. Exp. Med. 192:769-779, 2000) or bovine testis hyaluronidase. Baseline staining levels with PE-streptavidin alone are shown with open histograms. (D) The indicated DC preparations were examined for binding of biotinylated Pep-1 (filled) and RP (open). Peptide binding to splenic DC and bone marrow-DC was examined within the CD11c^+ populations.

Q: How did the “binding to surfaces of XS106 DC” value turn out when SATPASAPYPLA [RP, reference compound] was run?
A: Its value is “no significant binding”.
